Reference: publication PMC3340383, “Synthesis and Evaluation of a Series of 2-Substituted-5-Thiopropylpiperazine (Piperidine)-1,3,4-Oxadiazoles Derivatives as Atypical Antipsychotics” (PLoS ONE, 2012)
Marks after values point to notes of the source that are not given here.

What was measured:
catalepsy in mice = assay: Catalepsy test (horizontal bar); details: po
[1] = target: T1, serotonin 5-HT2C receptor (Rattus norvegicus, UniProt P08909); assay: 5-HT2C binding assay ([3H]mesulergine, rat brain cortex); details: mean of three experiments, read-out: Ki±SEM, 5HT2C
T1 construct: Rat cerebral cortex was homogenized in 20 volumes of ice-cold Tris-HCl buffer; from tissue; host or cells: rat brain (cerebral) cortex
T1 sequence (P08909 33-460): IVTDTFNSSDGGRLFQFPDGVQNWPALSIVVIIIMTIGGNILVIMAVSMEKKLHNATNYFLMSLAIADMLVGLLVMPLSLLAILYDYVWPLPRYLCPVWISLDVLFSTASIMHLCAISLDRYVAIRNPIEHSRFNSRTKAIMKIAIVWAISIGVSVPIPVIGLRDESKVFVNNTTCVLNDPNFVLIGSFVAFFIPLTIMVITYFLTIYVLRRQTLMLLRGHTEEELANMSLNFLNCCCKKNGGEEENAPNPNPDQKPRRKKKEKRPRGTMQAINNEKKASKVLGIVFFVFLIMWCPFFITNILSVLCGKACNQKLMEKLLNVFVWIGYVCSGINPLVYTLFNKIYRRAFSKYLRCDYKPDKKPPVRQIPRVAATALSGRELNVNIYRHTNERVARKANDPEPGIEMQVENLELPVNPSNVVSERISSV
Protocol: (§1) All the new compounds were dissolved in 5% DMSO. The following specific radioligands and tissue sources were used: (a) serotonin 5-HT1A receptor, [^3H]8-OH-DPAT, rat brain cortex; (b) serotonin 5-HT2A receptor, [^3H]ketanserin, rat brain cortex; (c) serotonin 5-HT2C receptor, [^3H]mesulergine, rat brain cortex; (d) dopamine D2 receptor, [^3H]spiperone, rat striatum; (e) dopamine D3 receptor, [^3H]spiperone, rat olfactory tubercle (f) histamine H1 receptor, [^3H] pyrilamine, guinea pig cerebellum.
Total binding was determined in the absence of no-specific binding and compounds. Specific binding was determined in the presence of compounds. Non-specific binding was determined as the difference between total and specific binding. […]
Ki values were calculated based on the Cheng and Prussoff equation: Ki = IC50/(1+C/Kd) where C represents the concentration of the hot ligand used and Kd its receptor dissociation constant were calculated for each labeled ligand. […]
The resulting pellet was resuspended in the same quantity of the buffer centrifuged for 20 min. […]
(§2) The incubation was followed by a rapid vacuum filtration through Whatman GF/B glass filters, and the filtrates were washed twice with 5 mL cold buffer and transferred to scintillation vials. Scintillation fluid (3.0 mL) was added and the radioactivity bound was measured using a Beckman LS 6500 liquid scintillation counter.

dopamine D3 receptor = target: T2, dopamine D3 receptor (Rattus norvegicus, UniProt P19020); assay: D3 dopaminergic binding assay ([3H]spiperone, rat olfactory tubercle); details: mean of three experiments, read-out: Ki±SEM, D3
T2 construct: Rat olfactory tubercle was homogenized in 20 volumes of ice-cold 50 mM Hepes Na; from tissue; host or cells: rat olfactory tubercle
T2 sequence (P19020 whole entry): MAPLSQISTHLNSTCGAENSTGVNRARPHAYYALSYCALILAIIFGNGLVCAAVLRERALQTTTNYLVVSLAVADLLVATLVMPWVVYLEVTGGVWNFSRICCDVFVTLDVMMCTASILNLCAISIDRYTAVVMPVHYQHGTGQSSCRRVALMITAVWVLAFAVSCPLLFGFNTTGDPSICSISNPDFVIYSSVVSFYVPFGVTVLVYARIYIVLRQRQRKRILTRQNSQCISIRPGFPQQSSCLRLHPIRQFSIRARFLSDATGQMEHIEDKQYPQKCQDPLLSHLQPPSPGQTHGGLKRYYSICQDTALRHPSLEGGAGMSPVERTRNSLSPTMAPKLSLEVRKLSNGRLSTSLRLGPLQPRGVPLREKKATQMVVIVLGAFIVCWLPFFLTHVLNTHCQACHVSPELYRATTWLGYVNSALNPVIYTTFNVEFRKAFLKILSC
Protocol: as §1
(§3) Total binding was determined in the absence of no-specific binding and compounds. Specific binding was determined in the presence of compounds. Non-specific binding was determined as the difference between total and specific binding.
(§4) Percentage of inhibition (%) = (total binding − specific binding)×100%/(total binding − nonspecific binding).
(§5) Ki values were calculated based on the Cheng and Prussoff equation: Ki = IC50/(1+C/Kd) where C represents the concentration of the hot ligand used and Kd its receptor dissociation constant were calculated for each labeled ligand. Mean Ki values and SEM were reported for at least three independent experiments.
as §2

[2] = test system: apomorphine-induced climbing behavior in mice; assay: Apomorphine-induced climbing; assay type: in vivo; details: mice, po; 95% confidence limits in parentheses
Protocol: . […] . Animals were then challenged at 30 minutes post-injection with 1.0 mg/kg of the apomorphine in 0.9% NaCl+0.1% ascorbic acid, placed in cylindrical wire cages (12 cm in diameter, 14 cm in height), and observed for climbing behavior at 10, 20 and 30 min post dose. The climbing behaviour was scored as follows: 3–4 paws on the cage floor = 0 score; 2 and 3 paws on the cage = 1 score; 4 paws on the cage = 2 score.

[3] = target: T3, serotonin 5-HT2A receptor (Rattus norvegicus, UniProt P14842); assay: 5-HT2A binding assay ([3H]ketanserin, rat brain cortex); details: [3H]ketanserin, rat brain cortex; mean of three experiments; >10000 marked b: Ki not calculated, inhibition at 10 µM too low; read-out: Ki±SEM, 5HT2A
T3 construct: Rat cerebral cortex was homogenized in 20 volumes of ice-cold Tris-HCl buffer; from tissue; host or cells: rat brain (cerebral) cortex
T3 sequence (P14842 whole entry): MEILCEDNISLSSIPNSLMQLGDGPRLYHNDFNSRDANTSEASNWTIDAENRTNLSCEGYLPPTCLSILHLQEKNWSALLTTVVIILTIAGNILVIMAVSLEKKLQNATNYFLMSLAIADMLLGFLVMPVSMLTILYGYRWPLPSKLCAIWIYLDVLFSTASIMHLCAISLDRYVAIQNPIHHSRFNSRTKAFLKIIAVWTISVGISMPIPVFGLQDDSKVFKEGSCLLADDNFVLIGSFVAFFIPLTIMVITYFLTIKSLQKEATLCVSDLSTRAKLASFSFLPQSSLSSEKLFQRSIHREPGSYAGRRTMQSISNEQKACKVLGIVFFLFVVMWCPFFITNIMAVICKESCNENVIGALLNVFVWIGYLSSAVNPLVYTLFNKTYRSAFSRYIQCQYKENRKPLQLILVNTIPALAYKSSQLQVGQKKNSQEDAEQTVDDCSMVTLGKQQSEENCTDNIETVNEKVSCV
Protocol: as §1, §3, §4, §5
Rat cerebral cortex was homogenized in 20 volumes of ice-cold Tris-HCl buffer (50 mM, pH 7.7) using an ULTRA TURAX homogeniser, and centrifuged at 32000 g for 20 min. The resulting pellet was resuspended in the same quantity of the buffer centrifuged for 20 min. The final pellet was resuspended in 50 volumes of the Tris-HCl buffer.
Total binding each assay tube was added 900 µL of the tissue suspension, 50 µL of 0.6 nM [^3H]ketanserin (60.0 Ci/mmol, Perkin Elmer Life Sciences, Boston, MA, USA), 50 µL Tris-HCl buffer.
Non-specific binding each assay tube was added 900 µL of the tissue suspension, 50 µL of 0.6 nM [^3H]ketanserin, 50 µL of 10 µM methisergide.
Specific binding each assay tube was added 900 µL of the tissue suspension, 50 µL of 0.6 nM [^3H]ketanserin, […] of new compounds or reference drug.
as §2

histamine H1 receptor = target: T4, histamine H1 receptor (Cavia porcellus, UniProt P31389); assay: Histamine H1 binding assay ([3H]pyrilamine, guinea pig cerebellum); details: [3H]pyrilamine, guinea pig cerebellum; mean of three experiments; >10000 marked b: Ki not calculated, inhibition at 10 µM too low; read-out: Ki±SEM, H1
T4 construct: Guinea pig cerebellum was homogenized in 20 volumes of ice-cold 50 mM phosphate buffer; from tissue; host or cells: guinea pig cerebellum
T4 sequence (P31389 whole entry): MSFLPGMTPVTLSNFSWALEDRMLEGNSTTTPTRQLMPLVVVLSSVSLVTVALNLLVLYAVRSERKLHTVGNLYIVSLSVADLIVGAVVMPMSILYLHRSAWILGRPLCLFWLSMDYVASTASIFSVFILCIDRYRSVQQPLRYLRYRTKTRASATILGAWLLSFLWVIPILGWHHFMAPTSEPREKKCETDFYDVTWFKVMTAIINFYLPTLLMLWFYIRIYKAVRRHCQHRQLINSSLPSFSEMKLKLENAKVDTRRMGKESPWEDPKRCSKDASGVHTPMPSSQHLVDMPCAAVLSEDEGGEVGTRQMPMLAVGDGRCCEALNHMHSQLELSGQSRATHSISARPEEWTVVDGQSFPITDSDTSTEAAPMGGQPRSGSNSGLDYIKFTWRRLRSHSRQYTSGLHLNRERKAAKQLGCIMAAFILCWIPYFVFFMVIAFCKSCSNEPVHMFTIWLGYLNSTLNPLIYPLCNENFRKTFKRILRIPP
Protocol: as §1, §3, §4, §5, §2

[4] = test system: MK-801-induced hyperactivity in mice; assay: MK-801-induced hyperactivity; details: mice, po; 95% confidence limits in parentheses

With `Fc1ccc2c(C3CCN(CCCSc4nnc(-c5cccc6ccccc56)o4)CC3)noc2c1` [Compound 22, 2-(3-(4-(6-fluorobenzo[d]isoxazol-3-yl)piperidin-1-yl)propylthio)-5-(naphthalen-1-yl)-1,3,4-oxadiazole] the “CAT (catalepsy) ED50 (C)” value (catalepsy in mice) was >300 mg/kg, the Ki [1] was 861 ± 86.2 nM and the Ki (dopamine D3 receptor) was 7.7 ± 0.6 nM. For the same molecule, the “Apomorphine-induced climbing ED50 (A)” value [2] was 3.68 (2.79–4.86) ^a mg/kg, the Ki [3] was 1.1 ± 0.1 nM and the Ki (histamine H1 receptor) was > 10000 nM. The “MK-801-induced hyperactivity ED50 (B)” value [4] was 3.58 (2.59–8.28) mg/kg.
